Data taken from patent publication US11492325B2, “Compounds as inhibitors of sodium channels” (Human BioMolecular Research Institute, priority 2016, dated 2022).

Tests used:
[1] = Metabolic stability in human liver microsomes; assay type: in vitro ADME
How it was run: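 Liver microsomes (rat, mouse, dog or human; 0.4-0.5 mg protein) incubated with 50 μM compound in 100 mM potassium phosphate pH 7.4 with NADPH-generating system and 3 mM MgCl2. Parent loss followed by HPLC-UV; half-life and kapp from normalized peak area versus time.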

[2] = Metabolic stability in rat liver microsomes; assay type: in vitro ADME; conditions: for half-life at 50 μM: rat, liver microsomes, pH 7.4, NADPH-generating system, 37° C., read-out: Liver Microsomes t1/2 Rat
Method: (§1) A typical incubation contained rat, mouse, dog or human liver microsomes (0.4-0.5 mg of protein), 100 mM potassium phosphate buffer (pH7.4), 50 μM test compound, an NADPH-generating system consisting of 0.5 mM NADP^+, 0.5 mM glucose-6-phosphate, 1 IU/mL glucose-6-phosphate dehydrogenase, 1 mg/mL diethylenetriaminepentaaceticacid (DETAPAC), and 3 mM MgCl2 in a final incubation volume of 0.25 mL. […] After centrifugation at 3000 rpm for 5 min, the organic fraction was collected, the solvent was removed with a stream of argon and the residue was reconstituted in 125 μL of MeOH and 125 μL H2O, mixed thoroughly, centrifuged at 13,000 rpm for 5 min and analyzed by high performance liquid chromatography. Samples were run on a Hitachi D-7000 HPLC system using a L-7100 analytical pump, L-7400 UV-Visible variable wavelength detector, and L-7600 automatic sample injector. […] Disappearance of the analyte was monitored over time. A plot of the area under the curve for the normalized analyte versus time afforded the half-life values and kapp.

[3] = Metabolic stability in mouse liver microsomes; assay type: in vitro ADME; conditions: for half-life at 50 μM: mouse, liver microsomes, pH 7.4, NADPH-generating system, 37° C., read-out: Liver Microsomes t1/2 Mouse
Method: as §1

[4] = Metabolic stability in dog liver microsomes; assay type: in vitro ADME; conditions: for half-life at 50 μM: dog, liver microsomes, pH 7.4, NADPH-generating system, 37° C., read-out: Liver Microsomes t1/2 Dog
Method: as §1

[5] = test system: cardiomyocytes derived from hiPSCs from a LQTS3 patient; conditions: for LQT-Fold Shortening / LQT-Shortening Dose / LQT-EC50 (μM)-Shortening: 'No AP' wraps to 'No AP shortening'; for LQT-Cess. Dose: deuterated vs non-deuterated; for action potential shortening compared to unlabeled compound: deuterium-labeled analogs
Human FMO3 = Human FMO3 (Homo sapiens, UniProt P31513); conditions: 15 μg enzyme/incubation; 30 mins, 37° C.; nmol metabolism/incubation
Human FMO1 = biological target: T1, Human FMO1 (Homo sapiens, UniProt Q01740); assay: Metabolism with human FMO1 (nmol metabolism/incubation); conditions: 15 μg enzyme/incubation; 30 mins, 37° C.; nmol metabolism/incubation
T1 sequence (Q01740 1-532): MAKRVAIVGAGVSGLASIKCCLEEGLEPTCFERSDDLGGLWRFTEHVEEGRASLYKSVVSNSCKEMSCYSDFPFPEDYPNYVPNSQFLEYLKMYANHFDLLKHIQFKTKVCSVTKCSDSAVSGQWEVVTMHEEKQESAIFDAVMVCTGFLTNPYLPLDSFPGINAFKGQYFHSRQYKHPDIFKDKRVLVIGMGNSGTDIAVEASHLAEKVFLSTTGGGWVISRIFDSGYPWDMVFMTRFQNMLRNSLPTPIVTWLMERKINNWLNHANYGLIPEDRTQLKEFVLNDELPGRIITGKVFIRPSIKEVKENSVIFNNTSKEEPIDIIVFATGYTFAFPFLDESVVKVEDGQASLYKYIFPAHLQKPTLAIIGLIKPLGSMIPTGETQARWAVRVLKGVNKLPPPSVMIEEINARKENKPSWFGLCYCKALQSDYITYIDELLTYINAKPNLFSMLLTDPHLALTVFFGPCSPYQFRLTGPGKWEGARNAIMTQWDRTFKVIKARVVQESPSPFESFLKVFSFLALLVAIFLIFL

CYP3A4 = CYP3A4 (Homo sapiens, UniProt P08684); assay: Metabolism with highly purified CYP3A4 (HPLC); conditions: 3 pmol enzyme/incubation; 30 mins, 37° C.; nmol metabolism/incubation
[6] = test system: normal human induced pluripotent stem cell (hiPSC) cardiomyocyte; conditions: for WT-Prolong. Dose: 'No AP' wraps to 'No AP Prolong.'; for WT-Cess. Dose / WT-EC50 (μM)-Prolong.: deuterated vs non-deuterated; for WT-EC50 (μM)-Prolong.: 'No AP' wraps to 'No AP prolongation'
[7] = Metabolism in mouse hepatic S9; conditions: for % Metabolism Mouse S9: 0.5 mg of protein
Method: as §1
(§2) Microsomes contain CYPs and FMO metabolic enzymes. S9 contains soluble enzymes (i.e., aldehyde oxidase, MAO, etc.).

[8] = Metabolism in dog hepatic S9; assay type: in vitro ADME; conditions: 0.5 mg of protein
Method: as §1, §2

[9] = Metabolism in human hepatic S9; conditions: 0.5 mg of protein
[10] = Metabolism in rat hepatic S9; assay type: in vitro ADME; conditions: 0.5 mg of protein
Method: as §1, §2

Sequence of Human FMO3 (P31513 whole entry): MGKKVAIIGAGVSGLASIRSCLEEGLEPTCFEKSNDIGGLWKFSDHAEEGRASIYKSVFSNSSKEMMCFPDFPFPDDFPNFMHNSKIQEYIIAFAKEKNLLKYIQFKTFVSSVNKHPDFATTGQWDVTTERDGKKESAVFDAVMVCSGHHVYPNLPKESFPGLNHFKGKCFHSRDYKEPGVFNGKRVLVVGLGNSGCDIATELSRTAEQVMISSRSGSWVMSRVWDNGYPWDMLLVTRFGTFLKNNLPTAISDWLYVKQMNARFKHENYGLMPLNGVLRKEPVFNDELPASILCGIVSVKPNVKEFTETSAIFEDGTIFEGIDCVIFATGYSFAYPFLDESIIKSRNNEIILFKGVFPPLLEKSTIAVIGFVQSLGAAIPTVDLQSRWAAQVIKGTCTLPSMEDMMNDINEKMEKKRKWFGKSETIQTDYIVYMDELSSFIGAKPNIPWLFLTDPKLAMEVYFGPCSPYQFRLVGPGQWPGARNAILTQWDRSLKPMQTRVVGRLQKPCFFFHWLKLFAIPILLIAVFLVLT
Sequence of CYP3A4 (P08684 whole entry): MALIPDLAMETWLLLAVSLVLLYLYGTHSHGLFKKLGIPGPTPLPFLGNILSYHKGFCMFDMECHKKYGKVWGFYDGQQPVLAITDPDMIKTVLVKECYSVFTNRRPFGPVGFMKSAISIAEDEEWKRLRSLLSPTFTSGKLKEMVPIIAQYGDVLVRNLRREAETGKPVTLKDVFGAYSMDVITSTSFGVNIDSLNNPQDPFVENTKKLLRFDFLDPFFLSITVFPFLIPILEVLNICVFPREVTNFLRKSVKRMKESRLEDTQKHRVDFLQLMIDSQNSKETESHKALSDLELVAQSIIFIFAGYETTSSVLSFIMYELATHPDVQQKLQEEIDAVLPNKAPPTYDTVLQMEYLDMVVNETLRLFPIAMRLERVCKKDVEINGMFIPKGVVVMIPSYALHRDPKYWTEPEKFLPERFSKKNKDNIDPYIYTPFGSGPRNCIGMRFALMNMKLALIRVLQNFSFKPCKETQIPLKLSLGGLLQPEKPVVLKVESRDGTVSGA

Compound: NC(COc1cc(C(F)(F)F)cc(C(F)(F)F)c1)c1ccccc1 (centres unmarked) [drawing 302]
- parent after 60 min, Human liver microsomes (Stable) [1]: Stable >95% parent after 60 min
- parent after 60 min, Rat liver microsomes (Stable) ([2]; 60 min): Stable >95% parent after 60 min
- parent after 60 min, Mouse liver microsomes (Stable) ([3]; 60 min): Stable >95% parent after 60 min
- half-life at 50 μM [4]: 1.93 h

Compound: Cl.[2H]C(N)(COc1cc(C)cc(C)c1)c1ccccc1 (centres unmarked) [Compound 104b]
- LQT-Fold Shortening [5]: 1.280
- LQT-Shortening Dose [5]: 2.5 µM
- LQT-Cess. Dose [5]: 22 µM
- action potential shortening compared to unlabeled compound [5]: equal to or greater action potential shortening
- Human FMO3 (nmol/incub) (Human FMO3): 0.05 nmol/incub
- Human FMO1 (nmol/incub) (Human FMO1): 1.0 nmol/incub
- Human CYP3A4 (nmol/incub) (CYP3A4): 0.3 nmol/incub
- WT-Prolong. Dose [6]: No AP
- WT-Cess. Dose [6]: 22 µM
- WT-EC50 (μM)-Prolong. [6]: No AP

Compound: Cl.[2H]C(N)(COc1ccccc1C)c1ccccc1 (centres unmarked) [Compound 104c]
- Human FMO3 (nmol/incub) (Human FMO3): 1.3 nmol/incub
- Human FMO1 (nmol/incub) (Human FMO1): 1.4 nmol/incub
- Human CYP3A4 (nmol/incub) (CYP3A4): 1.0 nmol/incub
- Mouse liver S-9 (nmol/incub) ([7]; 0.4 mg protein/incubation, 30 mins, 37° C., nmol metabolism/incubation): 13.2 nmol/incub

Compound: NC(COc1ccccc1C(F)(F)F)c1ccccc1 (centres unmarked) [drawing 308]
- % Metabolism Dog S9 [8]: 51.0 ± 19.1%
- % Metabolism Human S9 [9]: 28.0 ± 7.4%
- % Metabolism Rat S9 [10]: 15.4 ± 10.5%
- % Metabolism Mouse S9 [7]: 55.0 ± 22.4%

Compound: NC(COc1ccccc1C(F)(F)F)c1ccccc1 (centres unmarked) [drawing 304]
- parent after 60 min, Human liver microsomes (Stable) [1]: Stable >95% parent after 60 min
- half-life at 50 μM [2]: 3.3 h
- half-life at 50 μM [3]: 3.27 h
- parent after 60 min, Dog liver microsomes (Stable) ([4]; 60 min): Stable >95% parent after 60 min

Compound: Cc1cc(C)cc(OCC(N)c2ccccc2)c1 (centres unmarked) [drawing 301]
- half-life at 50 μM ([1]; human, liver microsomes, pH 7.4, 50 μM, NADPH-generating system, 37° C., read-out: Liver Microsomes t1/2 Human): 1.73 h
- half-life at 50 μM [2]: 0.867 h
- half-life at 50 μM [3]: 0.983 h
- half-life at 50 μM [4]: 3.07 h

Compound: Cc1cc(C)cc(OCC(N)c2ccccc2)c1 (centres unmarked) [drawing 306]
- % Metabolism Dog S9 [8]: 35.8 ± 7.0%
- % Metabolism Human S9 [9]: 39.2 ± 8.4%
- % Metabolism Rat S9 [10]: 45.0 ± 14.5%
- % Metabolism Mouse S9 [7]: 13.6 ± 5.0%

Compound: NC(COc1cc(C(F)(F)F)cc(C(F)(F)F)c1)c1ccccc1 (centres unmarked) [drawing 305]
- % Metabolism Dog S9 [8]: 25.6 ± 17.9%
- % Metabolism Human S9 [9]: 41.1 ± 28.9%
- % Metabolism Rat S9 [10]: 2.1 ± 1.4%
- % Metabolism Mouse S9 [7]: 11.6 ± 3.0%

Compound: Cl.[2H]C(N)(COc1ccccc1C(F)(F)F)c1ccccc1 (centres unmarked) [Compound 104d]
- LQT-EC50 (μM)-Shortening [5]: shortens)
- LQT-Fold Shortening [5]: 1.395
- LQT-Shortening Dose [5]: 22 µM
- LQT-Cess. Dose [5]: 66 µM
- Human FMO3 (nmol/incub) (Human FMO3): 0.7 nmol/incub
- Human FMO1 (nmol/incub) (Human FMO1): 0.3 nmol/incub
- Human CYP3A4 (nmol/incub) (CYP3A4): 0.3 nmol/incub
- WT-Prolong. Dose [6]: No AP
- WT-Cess. Dose [6]: 22 µM
- WT-EC50 (μM)-Prolong. [6]: No AP

Compound: Cl.[2H]C(N)(COc1cc(C(F)(F)F)cc(C(F)(F)F)c1)c1ccccc1 (centres unmarked) [Compound 104a]
- LQT-EC50 (μM)-Shortening [5]: No AP
- LQT-Fold Shortening [5]: 1.274
- LQT-Shortening Dose [5]: 22 µM
- LQT-Cess. Dose [5]: 133 µM
- action potential shortening compared to unlabeled compound [5]: equal to or greater action potential shortening
- Human FMO3 (nmol/incub) (Human FMO3): 0.6 nmol/incub
- Human FMO1 (nmol/incub) (Human FMO1): 0.8 nmol/incub
- Human CYP3A4 (nmol/incub) (CYP3A4): 1.1 nmol/incub
- WT-Prolong. Dose [6]: No AP
- WT-Cess. Dose [6]: 66 µM
- WT-EC50 (μM)-Prolong. [6]: No AP
